Molecules are shown by their SMILES.

Here are results for 20 compounds from patent US10227357B2, “Compounds and methods for kinase modulation, and indications therefor” (Plexxikon Inc., priority 2012, dated 2019).

The target in one experiment is T1, c-kit kinase (Homo sapiens, UniProt P10721).
T1 construct: The c-kit (or kinase domain thereof) is an active kinase in AlphaScreen; poly-Histidine tag (in-house protein only) (cleaved yes); host or cells: E. coli BL21(DE3)RIL, co-expressed with PTP1B
T1 sequence (P10721 26-976): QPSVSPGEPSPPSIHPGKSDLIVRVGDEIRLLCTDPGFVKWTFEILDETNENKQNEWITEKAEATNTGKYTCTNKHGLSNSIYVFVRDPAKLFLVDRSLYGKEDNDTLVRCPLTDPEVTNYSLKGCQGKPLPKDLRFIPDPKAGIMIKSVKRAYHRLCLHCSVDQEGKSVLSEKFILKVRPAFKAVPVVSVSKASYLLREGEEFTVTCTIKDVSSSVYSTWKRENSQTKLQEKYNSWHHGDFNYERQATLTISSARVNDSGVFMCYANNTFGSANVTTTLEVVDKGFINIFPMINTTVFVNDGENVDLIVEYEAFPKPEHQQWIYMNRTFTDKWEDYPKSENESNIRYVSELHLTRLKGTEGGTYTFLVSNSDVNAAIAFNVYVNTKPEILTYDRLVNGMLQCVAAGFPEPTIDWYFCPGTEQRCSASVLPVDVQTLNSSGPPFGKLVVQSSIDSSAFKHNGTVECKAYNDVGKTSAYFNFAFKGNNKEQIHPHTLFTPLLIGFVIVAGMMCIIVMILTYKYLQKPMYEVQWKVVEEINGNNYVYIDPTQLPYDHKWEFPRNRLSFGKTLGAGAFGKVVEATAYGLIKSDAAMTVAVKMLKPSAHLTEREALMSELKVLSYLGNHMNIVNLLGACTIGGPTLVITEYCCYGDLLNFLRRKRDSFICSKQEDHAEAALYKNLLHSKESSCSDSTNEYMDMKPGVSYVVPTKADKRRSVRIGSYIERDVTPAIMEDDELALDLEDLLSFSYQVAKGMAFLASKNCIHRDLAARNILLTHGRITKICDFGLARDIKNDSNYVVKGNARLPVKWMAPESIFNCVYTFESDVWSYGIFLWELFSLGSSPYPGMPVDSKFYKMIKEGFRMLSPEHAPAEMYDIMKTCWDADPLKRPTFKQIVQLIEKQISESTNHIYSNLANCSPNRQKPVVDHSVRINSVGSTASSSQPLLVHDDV
As to the kind of experiment: c-Kit biochemical assay, AlphaScreen, 10 μM ATP. To be noted: c-kit biochemical inhibitory activity; read-out: Biochemical activity (IC50 μM) Kit. The gist of the method: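 His-tagged c-Kit expressed in E. coli with co-expressed PTP1B (dephosphorylated), tag removed; 0.1 ng per reaction with biotinylated-peptide substrate in 50 mM HEPES pH 7.2, 5 mM MgCl2, 5 mM MnCl2, 5% DMSO, 10 μM ATP, 1 h at room temperature. Phosphorylation detected by AlphaScreen (streptavidin donor, PY20 acceptor beads); IC50 from 8-point 1:3 dilution series.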

The next experiment deals with T2, c-kit mutant D816V (Homo sapiens, UniProt P10721, D816V/DEL694-753).
T2 construct: residues 551-934, kinase insertion domain residues 694-753 deleted; 6x-histidine (N); made in house; host or cells: E. coli Arctic Express (DE3) RIL (Stratagene)
T2 sequence (P10721 with tags, fused parts or gaps DEL694-753/D816V): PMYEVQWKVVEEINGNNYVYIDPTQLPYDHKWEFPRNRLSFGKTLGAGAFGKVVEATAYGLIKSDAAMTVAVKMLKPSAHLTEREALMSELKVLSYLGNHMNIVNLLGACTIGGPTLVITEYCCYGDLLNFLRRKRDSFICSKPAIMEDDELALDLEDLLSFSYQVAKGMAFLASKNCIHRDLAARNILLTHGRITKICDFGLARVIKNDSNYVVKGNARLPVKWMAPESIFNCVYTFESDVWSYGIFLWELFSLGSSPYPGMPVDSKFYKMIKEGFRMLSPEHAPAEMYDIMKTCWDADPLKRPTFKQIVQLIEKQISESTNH
As to the kind of experiment: c-Kit mutant D816V biochemical assay, AlphaScreen. Conditions: c-kit D816V biochemical inhibitory activity; read-out: Biochemical activity (IC50 μM) Kit D816V. The gist of the method: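 Eight-point, threefold compound series incubated 30 min at room temperature with E. coli-produced D816V kinase, 10 μM ATP, Mg2+/Mn2+ HEPES buffer pH 7.2 and 5% DMSO. After EDTA stop, streptavidin and anti-phosphotyrosine (PY20) AlphaScreen beads gave the read-out, and IC50 was fitted from the concentration–signal curve.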

As to `Cc1nn(C)cc1-c1cc2ncnc(N3CCN(C(=O)N[C@@H](C)c4ccc(F)cc4)[C@H](C)C3)c2s1` [P-0599, (2R)-4-[6-(1,3-dimethylpyrazol-4-yl)thieno[3,2-d]pyrimidin-4-yl]-N-[(1S)-1-(4-fluorophenyl)ethyl]-2-methyl-piperazine-1-carboxamide], the IC50 fell in the range of 10 to 200 µM at c-kit kinase and 0.0001 to 1 µM on c-kit mutant D816V.
As for `COc1cccc([C@H](C)NC(=O)N2CCN(c3ncnc4cc(-c5ccc(F)cc5)sc34)C[C@H]2C)c1` [P-0600, (2R)-4-[6-(4-fluorophenyl)thieno[3,2-d]pyrimidin-4-yl]-N-[(1S)-1-(3-methoxyphenyl)ethyl]-2-methyl-piperazine-1-carboxamide], the IC50 was 10 to 200 µM at c-kit kinase and 0.0001 to 1 µM at c-kit mutant D816V.
As to `C[C@@H]1CN(c2ncnc3cc(-c4ccc(F)cc4)sc23)CCN1C(=O)NCc1ccc(F)cc1` [P-0602, (2R)-N-[(4-fluorophenyl)methyl]-4-[6-(4-fluorophenyl)thieno[3,2-d]pyrimidin-4-yl]-2-methyl-piperazine-1-carboxamide], the concentration for half-maximal inhibition (IC50) was in the range of 10 to 200 µM on c-kit kinase and 0.0001 to 1 µM on c-kit mutant D816V.
With `Cc1nn(C)cc1-c1cc2ncnc(C3CCN(C(=O)N[C@@H](C)c4ccc(F)cc4)CC3)c2s1` [P-0603, 4-[6-(1,3-dimethylpyrazol-4-yl)thieno[3,2-d]pyrimidin-4-yl]-N-[(1S)-1-(4-fluorophenyl)ethyl]piperidine-1-carboxamide], the results for the IC50 on c-kit kinase and on c-kit mutant D816V were 10 to 200 µM and 1 to 10 µM, respectively.
Take `Cc1nn(C)cc1-c1cc2ncnc(C3CCN(C(=O)NCc4ccc(F)cc4)CC3)c2s1` [P-0604, 4-[6-(1,3-dimethylpyrazol-4-yl)thieno[3,2-d]pyrimidin-4-yl]-N-[(4-fluorophenyl)methyl]piperidine-1-carboxamide]: the IC50 lay in the range of 1 to 10 µM on c-kit kinase and 0.0001 to 1 µM on c-kit mutant D816V.
Take `COc1cccc([C@@H](C)NC(=O)N2CCN(c3ncnc4cc(-c5ccc(F)cc5)sc34)C[C@H]2C)c1` [P-0605, (2R)-4-[6-(4-fluorophenyl)thieno[3,2-d]pyrimidin-4-yl]-N-[(1R)-1-(3-methoxyphenyl)ethyl]-2-methyl-piperazine-1-carboxamide]: the IC50 on c-kit kinase and on c-kit mutant D816V was 10 to 200 µM throughout.
`C[C@@H]1CN(c2ncnc3cc(-c4ccc(F)cc4)sc23)CCN1C(=O)N[C@H](C)c1ccc(F)cc1` [P-0606, (2R)-N-[(1R)-1-(4-fluorophenyl)ethyl]-4-[6-(4-fluorophenyl)thieno[3,2-d]pyrimidin-4-yl]-2-methyl-piperazine-1-carboxamide]: the figures for the IC50 on c-kit kinase and at c-kit mutant D816V were 10 to 200 µM and 1 to 10 µM, respectively.
In the case of `Cc1nn(C)cc1-c1cc2ncnc(C3CCNCC3)c2s1` [P-0607, 6-(1,3-dimethylpyrazol-4-yl)-4-(4-piperidyl)thieno[3,2-d]pyrimidine], the figures for the IC50 on c-kit kinase and on c-kit mutant D816V were 1 to 10 µM and 10 to 200 µM, respectively.
Consider `COc1cccc([C@@H](C)NC(=O)N2CCN(c3ncnc4cc(-c5cn(C)nc5C)sc34)C[C@H]2C)c1` [P-0608, (2R)-4-[6-(1,3-dimethylpyrazol-4-yl)thieno[3,2-d]pyrimidin-4-yl]-N-[(1R)-1-(3-methoxyphenyl)ethyl]-2-methyl-piperazine-1-carboxamide], for which the IC50 lay within 10 to 200 µM on c-kit kinase and 0.0001 to 1 µM at c-kit mutant D816V.
Regarding `Cc1nn(C)cc1-c1cc2ncnc(N3CCN(C(=O)N[C@H](C)c4ccc(F)cc4)[C@H](C)C3)c2s1` [P-0609, (2R)-4-[6-(1,3-dimethylpyrazol-4-yl)thieno[3,2-d]pyrimidin-4-yl]-N-[(1R)-1-(4-fluorophenyl)ethyl]-2-methyl-piperazine-1-carboxamide], the IC50 on c-kit kinase lay in the range of 1 to 10 µM; on c-kit mutant D816V it was 0.0001 to 1 µM.
In the case of `Cc1nn(C)cc1-c1cc2ncnc(N3CCN(C(=O)NCc4ccc(F)cc4)[C@H](C)C3)c2s1` [P-0610, (2R)-4-[6-(1,3-dimethylpyrazol-4-yl)thieno[3,2-d]pyrimidin-4-yl]-N-[(4-fluorophenyl)methyl]-2-methyl-piperazine-1-carboxamide], the IC50 on c-kit kinase was 1 to 10 µM; at c-kit mutant D816V it was 0.0001 to 1 µM.
On to `Cc1ccc(S(=O)(=O)Nc2ccc(-c3ncnc4cc(C5=CCNCC5)sc34)cc2)cc1` [P-0611, 4-methyl-N-[4-[6-(1,2,3,6-tetrahydropyridin-4-yl)thieno[3,2-d]pyrimidin-4-yl]phenyl]benzenesulfonamide], for which the IC50 at c-kit kinase and on c-kit mutant D816V was 0.0001 to 1 µM throughout.
For `Cc1nn(C)cc1-c1cc2ncnc(C3=CCN(C(=O)Nc4ccc(Cl)cc4)CC3)c2s1` [P-0612, N-(4-chlorophenyl)-4-[6-(1,3-dimethylpyrazol-4-yl)thieno[3,2-d]pyrimidin-4-yl]-3,6-dihydro-2H-pyridine-1-carboxamide], the IC50 at c-kit kinase and at c-kit mutant D816V was 0.0001 to 1 µM throughout.
`Cc1nn(C)cc1-c1cc2ncnc(C3=CCN(C(=O)NCc4ccc(F)cc4)CC3)c2s1` [P-0613, 4-[6-(1,3-dimethylpyrazol-4-yl)thieno[3,2-d]pyrimidin-4-yl]-N-[(4-fluorophenyl)methyl]-3,6-dihydro-2H-pyridine-1-carboxamide]: the half-inhibitory concentration (IC50) at c-kit kinase is 1 to 10 µM; at c-kit mutant D816V, 0.0001 to 1 µM.
On the same counts, the results for `Cc1ccc(S(=O)(=O)Nc2ccc(-c3ncnc4cc(C5=CCN(C(=O)OC(C)(C)C)CC5)sc34)cc2)cc1` [P-0614, tert-butyl 4-[4-[4-(p-tolylsulfonylamino)phenyl]thieno[3,2-d]pyrimidin-6-yl]-3,6-dihydro-2H-pyridine-1-carboxylate] are 1 to 10 µM and 0.0001 to 1 µM.
As for `O=C(NCc1ccc(F)cc1)N1CCN(c2ncnc3cc(C4=CCNCC4)sc23)CC1` [P-0615, N-[(4-fluorophenyl)methyl]-4-[6-(1,2,3,6-tetrahydropyridin-4-yl)thieno[3,2-d]pyrimidin-4-yl]piperazine-1-carboxamide], the IC50 on c-kit kinase fell in the range of 1 to 10 µM; at c-kit mutant D816V, 0.0001 to 1 µM.
`CC(C)(C)OC(=O)N1CC=C(c2cc3ncnc(N4CCN(C(=O)NCc5ccc(F)cc5)CC4)c3s2)CC1` [P-0616, tert-butyl 4-[4-[4-[(4-fluorophenyl)methylcarbamoyl]piperazin-1-yl]thieno[3,2-d]pyrimidin-6-yl]-3,6-dihydro-2H-pyridine-1-carboxylate]: the IC50 was in the range of 1 to 10 µM at c-kit kinase and 0.0001 to 1 µM on c-kit mutant D816V.
As for `Cn1cc(-c2cc3ncnc(C4=CC(C)(C)NC(C)(C)C4)c3s2)cn1` [P-0617, 6-(1-methylpyrazol-4-yl)-4-(2,2,6,6-tetramethyl-1,3-dihydropyridin-4-yl)thieno[3,2-d]pyrimidine], the IC50 at c-kit kinase and at c-kit mutant D816V was 10 to 200 µM in each case.
For the compound `Cc1nn(C)c(C)c1-c1cc2ncnc(N3CCN(C(=O)NCc4ccc(F)cc4)CC3)c2s1` [P-0618, N-[(4-fluorophenyl)methyl]-4-[6-(1,3,5-trimethylpyrazol-4-yl)thieno[3,2-d]pyrimidin-4-yl]piperazine-1-carboxamide], the 50% inhibitory concentration (IC50) on c-kit kinase and at c-kit mutant D816V was 1 to 10 µM throughout.
Regarding `Cc1nn(C)cc1-c1cc2ncnc(N3CCN(C(=O)NCc4ccc(F)cc4)CC3)c2s1` [P-0619, 4-[6-(1,3-dimethylpyrazol-4-yl)thieno[3,2-d]pyrimidin-4-yl]-N-[(4-fluorophenyl)methyl]piperazine-1-carboxamide], the IC50 at c-kit kinase fell in the range of 1 to 10 µM; at c-kit mutant D816V, 0.0001 to 1 µM.
